Laboratory results taken from PMC12010006, “Subnanomolar MAS-related G protein-coupled receptor-X2/B2 antagonists with efficacy in human mast cells and disease models” (Signal Transduction and Targeted Therapy, 2025).
Entries after “also recorded” stand apart in the source; their conditions may differ.

Assays:
MRGPRX2 = target: T1, MRGPRX2 (Homo sapiens, UniProt Q96LB1); experiment: TRUPATH Gαi1 dissociation assay, LN229 cells expressing MRGPRX2; assay type: cell-based; parameters: expressed in transfected cells; host or cells: LN229 human glioblastoma cells; plasmid pLXSN-MRGPRX2 (Addgene #213960); details: 100 nM, preincubation
T1 sequence (Q96LB1 1-330): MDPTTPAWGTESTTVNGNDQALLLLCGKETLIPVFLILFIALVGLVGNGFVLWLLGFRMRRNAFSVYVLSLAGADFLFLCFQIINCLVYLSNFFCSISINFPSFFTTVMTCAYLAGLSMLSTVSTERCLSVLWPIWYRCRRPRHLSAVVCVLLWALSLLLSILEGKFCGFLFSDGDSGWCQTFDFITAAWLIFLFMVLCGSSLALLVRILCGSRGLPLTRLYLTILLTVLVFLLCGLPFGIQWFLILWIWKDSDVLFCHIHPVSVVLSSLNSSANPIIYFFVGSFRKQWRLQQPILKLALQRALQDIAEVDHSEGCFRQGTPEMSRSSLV
Description: Fig. 3 Biological characterization of PSB-172656. a Selectivity of PSB-172656 (100 nM) for MRGPRX2 over MRGPRX1, MRGPRX3, and MRGPRX4 measured in β-arrestin assays utilizing β-arrestin-CHO cells with recombinant expression of the respective receptor. MRGPRX1 was activated by BAM-22P (8.5 µM),[19] MRGPRX2 was activated by CST-14 (1 µM), MRGPRX3 was activated by PSB-20294 (10 µM), MRGPRX4 was activated by PSB-18061 (2.6 µM).[44] Data represent mean values ± SEM of 3-4 biological replicates, performed in duplicates. […] Data are means ± SEM of 3 biological replicates, in duplicates. Statistical significance was determined by one-way ANOVA (Tukey’s multiple comparison) test (ns P > 0.05). […] Data are means ± SEM of 3 biological replicates, performed in duplicates. e Shift assay to determine inhibition type of PSB-172656 versus CST-14. […] Extrapolated data were not used for analysis but only shown for a comprehensive view. f Schild plot for the effect of PSB-172656 on the concentration-response curves for CST-14. […]
To further investigate PSB-172656 signaling, direct activation of the relevant G protein subunits, Gαq and Gαi1,[32] was studied. This was assessed using G protein dissociation assays and LN229 cells stably overexpressing MRGPRX2 while transiently expressing the investigated G protein (Fig. 3c, d).[47]

[1] = Metabolic stability in human liver microsomes; assay type: in vitro ADME; details: human liver microsomes 0.25 mg/ml, compound 1 µM
[2] = system: C48/80-induced systemic anaphylaxis; experiment: Systemic anaphylactic reaction, plasma CCL2; assay type: in vivo, mouse; details: 50 mg/kg b.w., i.p.; C48/80 2 mg/kg i.p.; 4 h; listed as PSB-172656
Description: PSB-172656 was further investigated in a mouse model of skin inflammation,[54] determining its effects on C48/80-induced hind paw edema. […] These findings indicate a strong anti-inflammatory effect of the MRGPRX2/B2 antagonist in this mouse model.
30 min after intraperitoneal administration of PSB-172656 at a dose of 50 mg/kg b.w. or vehicle (2% DMSO), an anaphylactic reaction was induced by the intraperitoneal injection of C48/80 at a dose of 2 mg/kg b.w. (in 0.9% NaCl). The non-lethal dose of this compound was assumed based on the literature.[70],[71] The mice were then left in their cages for 4 h. Then, heparin (2500 U/mouse) and sodium thiopental at a dose of 70 mg/kg b.w. were administered intraperitoneally, and blood was collected after decapitation. The plasma concentration of CCL-2 and IL-8 was determined using an ELISA kit (catalog number: E1707Mo, E1481Mo, BT LAB, China).

CCc1c(C(C)C)[nH]c2nc3cc(F)c(F)cc3n2c1=O [Compound 24, 3-ethyl-7,8-difluoro-2-isopropylbenzo[4,5]imidazo [1,2-a] pyrimidin-4(1H)-one]
inhibition of CST-14-induced Gαi1 dissociation (MRGPRX2): completely inhibited
half-life at 1 µM ([1]; both sexes, human, liver microsomes, read-out: T1/2 (half-life)): 1.53 h
microsomal CLint at 1 µM ([1]; both sexes, read-out: Clint (intrinsic clearance)): 15 µL/min/mg
T1/2 (half-life) [1]: 1.54 h
T1/2 (half-life) ([1]; listed as PSB-172656): > 1.5 h
effect on plasma CCL2 levels [2]: significantly decreased levels of CCL2; also recorded: prevented the dramatic increase in CCL2 levels
